Tests used:
[1] = tested on: IL-1α expression in stimulated human-derived white blood cells; assay: Combination therapeutic assay, IL-1α content; format: cell-based; conditions: DOX at 5.69 ug/ml, DEX at 1 ug/ml, alone or combined; 24 hours at 37° C.
Experimental: To assay for cytokine concentration, the solution in each test well was transferred to microcentrifuge tubes and centrifuged (3000 rpm) for 5 minutes to pellet any cells that were drawn from the wells. The supernatants were then transferred to fresh tubes and stored in a minus 85° C. freezer until used. The cytokine content in the stored supernatants was determined using commercially available cytokine ELISA- (enzyme linked immunosorbent assays) based assays from, for example, R&D Systems, Minneapolis, Minn., using the manufacturer's instructions. Essentially, the procedure was as follows: first, 200 μl of the test samples were added to each well of the microplates. The wells of the microplates were precoated with monoclonal antibodies specific to the cytokine being analyzed. All lipopolysaccharide-(LPS) treated samples were diluted 1:10 in RPMI growth media prior to the assay. The plates were covered and incubated for 2 hours at room temperature. Each well was then washed three times with wash buffer (350 μl/well), and 200 μl of cytokine conjugate were added to each well, covered, and incubated for 1 hour at room temperature. Next, 200 μl of substrate solution were added to each well and incubated for 20 minutes at room temperature. […] The optical density readings of the color development were determined in a microplate reader set at 450 nm wavelength. […]

[2] = tested on: MMP-9 secretion from PHA-stimulated human white blood cells; assay: MMP assay: effect of doxycycline on MMP-9 secretion from PHA-stimulated human white blood cells; format: cell-based; conditions: PHA 10 μg/ml
Experimental: To perform an MMP assay to assess the effect of doxycycline on human-derived white blood cells, cells were seeded into 24 well tissue culture plates. The drug concentrations selected for the experiment were based on measured tissue levels of doxycycline following an oral dose of 100 mg. The cells were exposed to the drugs under two schemes. In scheme 1, the cells, the stimulant and the drug were all added at the same time and allowed to incubate for a period of 24 hours. In scheme 2 the cells were preconditioned with the drug for a period of 24 hours and then stimulated with PHA for an additional 24 hours. In this case the total experimental time duration was 48 hours. The seeding densities: 5×10^6 cells per well and assay conditions were as follows: PHA at a working concentration of 10 μg/ml; doxycycline concentrations at 0, 2.5, 5, 10, 12, or 15 μM and either a 24 hour (scheme 1) or 48 hour (scheme 2) duration. MMP-9 analysis was performed using a Quantikine Human MMP-9 (total) Immunoassay (R&D Systems, #DMP900).

[3] = tested on: MMP-9 expression in stimulated human-derived white blood cells; assay: Combination therapeutic assay, MMP-9 content; format: cell-based; conditions: DOX at 5.69 ug/ml, DEX at 1 ug/ml, alone or combined; 24 hours at 37° C.
Experimental: Next, to test the effect of therapeutics in combination, assays were performed to determine the effect of doxycycline alone (DOX at 5.69 ug/ml); dexamethasone alone (DEX at 1 ug/ml) and the effect of a combination of doxycycline and dexamethasone (DOX at 5.69 ug/ml)+DEX at 1 ug/ml). Dexamethasone is a potent agent with broad anti-inflammatory (against cytokines, chemokines, prostaglandins, etc.) and immunosuppressive properties. Dexamethasone also has known anti-angiogenic properties. Doxycycline was used as the MMP inhibitor for these studies.
Briefly, human-derived white blood cells were placed in a 24 well plate and exposed to a stimulant (PHA or lipopolysaccharide (LPS)) and the three different treatment regimes for a period of 24 hours at 37° C. The supernatants were then collected and assayed for MMP-9 and IL-1 content.

[4] = Stability assay of doxycycline and dexamethasone in combination; format: physicochemical; conditions: DOX (56.9 ug/ml)+DEX (10 ug/ml) mixture, 4 days at 37° C.
Experimental: A stability assay was first performed to ascertain whether doxycycline and dexamethasone react with one another. High concentrations of each solution were combined (DOX (56.9 ug/ml)+DEX (10 ug/ml)) and allowed to incubate for 4 days at 37° C. in an orbital shaker. At the end of four days the concentrations of each drug in the mixture was determined by spectrophotometry and compared to the original concentrations.

[5] = cited from earlier work; for elimination / clearance route: in vivo
[6] = target: ACE (Homo sapiens, UniProt P12821); conditions: in vitro; cited from earlier work
[7] = tested on: MMP-9 secretion from human-derived white blood cells; assay: MMP assay development: effect of stimulants on MMP-9 release from human-derived white blood cells; format: cell-based; conditions: PHA 10 μg/ml alone, five million (5M) cells per well, 24 hours at 37° C.
Description: MMP assay development involved two separate determinations. The first set of experiments established the working conditions for the assay, namely the optimal cell density and the choice and concentration of stimulant. MMP-9 is secreted by monocytes, macrophages, and neutrophils, amongst other cells; however, under non-stimulatory in vitro conditions the basal level secretion of MMP-9 by these cells is very low. Thus, for the second set of experiments (performed to determine the inhibitory effects of potential drugs or reagents), the levels of MMP secretion were raised to sufficiently high levels so that drug-mediated differences could be detected.
Human-derived white blood cells were isolated from human blood by a procedure such as that described above. The total cell population was adjusted and added to 24 well polystyrene tissue culture plates in the following cell densities: 5 million, 2 million, 1 million and 0.5 million per well. The stimulants used to stimulate MMP secretion were PMA (phorbol 12-myristate 13-acetate, Sigma #P8139) at a working concentration of 100 nM; PHA (phythohemagglutinin, Sigma #L9017) at a working concentration of 10 μg/ml; and PMA (100 nM)+PHA (10 μg/ml). […] The secreted MMP was determined by ELISA using a Quantikine Human MMP-9 (total) Immunoassay (R&D Systems, #DMP900).

ACE, sequence (P12821 30-1306, species assumed): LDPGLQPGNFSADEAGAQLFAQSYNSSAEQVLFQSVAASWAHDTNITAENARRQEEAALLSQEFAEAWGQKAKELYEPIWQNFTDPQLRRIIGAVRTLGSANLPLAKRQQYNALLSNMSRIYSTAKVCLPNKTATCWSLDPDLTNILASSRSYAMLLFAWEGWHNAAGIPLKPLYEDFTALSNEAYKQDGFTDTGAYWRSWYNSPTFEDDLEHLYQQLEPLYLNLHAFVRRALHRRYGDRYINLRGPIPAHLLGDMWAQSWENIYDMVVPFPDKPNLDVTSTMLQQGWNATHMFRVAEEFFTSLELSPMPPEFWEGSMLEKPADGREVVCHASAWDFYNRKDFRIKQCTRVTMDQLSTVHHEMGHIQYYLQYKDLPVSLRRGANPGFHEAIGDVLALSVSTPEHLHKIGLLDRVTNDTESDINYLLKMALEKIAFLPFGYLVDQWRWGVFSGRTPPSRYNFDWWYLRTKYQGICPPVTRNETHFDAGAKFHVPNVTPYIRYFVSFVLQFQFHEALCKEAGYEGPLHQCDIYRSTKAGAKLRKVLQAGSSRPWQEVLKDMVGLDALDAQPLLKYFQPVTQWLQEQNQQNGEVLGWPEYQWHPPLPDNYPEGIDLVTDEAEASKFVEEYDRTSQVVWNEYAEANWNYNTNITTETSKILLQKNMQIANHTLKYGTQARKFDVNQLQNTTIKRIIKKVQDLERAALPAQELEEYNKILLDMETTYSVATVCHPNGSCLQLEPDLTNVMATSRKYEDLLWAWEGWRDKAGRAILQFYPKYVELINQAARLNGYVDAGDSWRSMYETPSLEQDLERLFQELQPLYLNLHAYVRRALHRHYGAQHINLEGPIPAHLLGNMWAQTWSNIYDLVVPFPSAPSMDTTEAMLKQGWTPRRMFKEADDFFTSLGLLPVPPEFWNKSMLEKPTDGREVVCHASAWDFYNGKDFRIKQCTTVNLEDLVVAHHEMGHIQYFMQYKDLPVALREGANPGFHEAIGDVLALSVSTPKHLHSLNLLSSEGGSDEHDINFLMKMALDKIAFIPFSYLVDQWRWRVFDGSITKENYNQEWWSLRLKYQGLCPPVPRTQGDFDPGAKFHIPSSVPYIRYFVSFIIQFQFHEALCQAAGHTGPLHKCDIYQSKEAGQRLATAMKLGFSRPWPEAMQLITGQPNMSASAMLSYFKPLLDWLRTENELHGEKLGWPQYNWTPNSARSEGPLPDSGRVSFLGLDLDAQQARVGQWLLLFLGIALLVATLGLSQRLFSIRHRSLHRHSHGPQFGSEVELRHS

In the case of C[C@@H]1C[C@H]2[C@@H]3CCC4=CC(=O)C=C[C@]4(C)[C@@]3(F)[C@@H](O)C[C@]2(C)[C@@]1(O)C(=O)CO [DEX, dexamethasone], the “inhibition of IL expression compared to the control” value [1] is reported as “approximately 85%”.
For CC1c2cccc(O)c2C(=O)C2=C(O)C3(O)C(=O)C(C(N)=O)=C(O)C(N(C)C)C3C(O)C21.O (stereo not shown) [DOX, 4-(Dimethylamino)-1,4,4a,5,5a,6,11, 12a-octahydro-3,5,10,12,12a-pentahydroxy-6-methyl-1,11-dioxo-2-naphthacenecarboxamide monohydrate], the “effect on MMP-9 expression over 0-15 μM” value ([2]; doxycycline 0, 2.5, 5, 10, 12, or 15 μM) was “dose-dependent inhibitory effect”, the “inhibition of MMP-9 expression” value ([2]; doxycycline at 15 μM, 5×10^6 cells per well, scheme 1 (24 hour) or scheme 2 (48 hour)) was about 60% and the “inhibition of MMP-9 compared to the control” value [3] was “approximately 32%”. For the same molecule, the “inhibition of IL expression compared to the control” value [1] was “no effect on inflammatory cytokine expression”, the “Final Concentration” value ([4]; MES buffer) was “˜56.7 ug/ml” and the “Final Concentration” value ([4]; PBS buffer) was “˜57.5/ml ug/ml”.
In the case of C[C@H](CS)C(=O)N1CCC[C@H]1C(=O)O [captopril], the bioavailability ([5]; given orally) is given as “about 75%”.
For CCC(=O)O[C@@H](O[P@](=O)(CCCCc1ccccc1)CC(=O)N1C[C@H](C2CCCCC2)C[C@H]1C(=O)O)C(C)C [fosinopril], the “elimination / clearance route” value [5] is given as “balanced elimination by the liver and kidneys”.
For NCCCC[C@H](N[C@@H](CCc1ccccc1)C(=O)O)C(=O)N1CCC[C@H]1C(=O)O [lisinopril], the “ACE inhibitor potency compared with enalaprilat” value [6] is listed as “slightly more potent” and the “time of peak concentrations in the plasma” value ([5]; oral administration) is listed as “about 7 hours”.
For CCOC(=O)[C@H](CCc1ccccc1)N[C@@H](C)C(=O)N1CC2(C[C@H]1C(=O)O)SCCS2 [spirapril], the “elimination / clearance route” value [5] is given as “balanced elimination by the liver and kidneys”.
For phythohemagglutinin [PHA], the “increase in MMP-9 secretion over basal levels” value [7] was “greater than 200 fold”.
